# Results taken from patent US11591341B2 (ALIGOS THERAPEUTICS, INC., priority 2019, dated 2023).
# System: HBV
# Experiment: HBV-DNA Antiviral Assay Using HepG2.117 Cells (intracellular HBV DNA by qPCR)
# Assay type: cell-based, hepatitis B virus (genotype D)
# Conditions: Hepatitis B virus, HepG2.117
# Method in brief: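 Endpoint: qPCR copy number of intracellular HBV DNA after 3-day compound exposure, with inhibition set relative to the 2% DMSO control. The cells were doxycycline-free HepG2.117 carrying a Tet-off genotype D genome, dosed at nine 4-fold dilutions. A duplicate plate gave ATP-based viability (CC50).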
row,Structure (SMILES),EC50
1,"C[C@H]1Cn2c(c3n(c2=O)C[C@H](F)CN(Cc2ccccc2)C3=O)CN1C(=O)c1ccc(Br)c(Cl)c1 (stereo in doubt) [Example 372, 13-benzyl-4-(4-bromo-3-chlorobenzoyl)-11-fluoro-4,7,9,13-tetraazatricyclo[7.5.0.0^[2,7]]tetradec-1-ene-8,14-dione]",100 to 500 nM
2,"O=C(NCc1ccc(OC(F)F)cc1F)c1c2n(c(=O)n1-c1ccc(OCC(F)(F)F)cc1)CCN(C(=O)c1ccc(Br)c(Cl)c1)C2 [Example 286, 7-(4-bromo-3-chloro-benzoyl)-N-[[4-(difluoromethoxy)-2-fluoro-phenyl]methyl]-3-oxo-2-[4-(2,2,2-trifluoroethoxy)phenyl]-6,8-dihydro-5H-imidazo[1,5-a]pyrazine-1-carboxamide]",500 to 5000 nM
3,"C[C@H](NC(=O)c1c2n(c(=O)n1-c1ccc(-n3cccn3)cc1)CCN(C(=O)c1ccc(Br)c(Cl)c1)C2)c1ccccc1F (stereo in doubt) [Example 409, 7-(4-bromo-3-chloro-benzoyl)-3-oxo-2-(4-pyrazol-1-ylphenyl)-N-[rac-(1S)-1-(2-fluorophenyl)ethyl]-6,8-dihydro-5H-imidazo[1,5-a]pyrazine-1-carboxamide]",500 to 5000 nM
4,"N#Cc1ccc(-n2c(C(=O)NCc3ccccc3)c3n(c2=O)CCN(C(=O)c2ccc(Br)c(Cl)c2)C3)c(Cl)c1 [Example 351, N-benzyl-7-(4-bromo-3-chloro-benzoyl)-2-(2-chloro-4-cyano-phenyl)-3-oxo-6,8-dihydro-5H-imidazo[1,5-a]pyrazine-1-carboxamide]",> 5000 nM
5,"CC(NC(=O)c1c2n(c(=O)n1-c1ccc(OC3CC3)cc1)CCN(C(=O)c1ccc(Br)c(Cl)c1)C2)c1ccc(C#N)cc1F (racemic) [Example 340, 7-(4-bromo-3-chloro-benzoyl)-2-[4-(cyclopropoxy)phenyl]-3-oxo-N-[rac-(1S)-1-(4-cyano-2-fluoro-phenyl)ethyl]-6,8-dihydro-5H-imidazo[1,5-a]pyrazine-1-carboxamide]",100 to 500 nM
6,"C[C@@H](NC(=O)c1c2n(c(=O)n1-c1ccc(OC3CC3)cc1)CCN(C(=O)c1ccc(Br)c(Cl)c1)C2)c1ccc(OC2COC2)cc1F (stereo in doubt) [Example 346, 7-(4-bromo-3-chloro-benzoyl)-2-[4-(cyclopropoxy)phenyl]-3-oxo-N-[rac-(1R)-1-[2-fluoro-4-(oxetan-3-yloxy)phenyl]ethyl]-6,8-dihydro-5H-imidazo[1,5-a]pyrazine-1-carboxamide]",100 to 500 nM
7,"COc1ccc(-n2c(C(=O)N[C@@H](c3ccccc3)C(F)(F)F)c3n(c2=O)CCN(C(=O)c2ccc(Br)c(Cl)c2)C3)cc1 (stereo in doubt) [Example 209, 7-(4-bromo-3-chloro-benozyl)-2-(4-methoxyphenyl)-3-oxo-N-[rac-(1S)-2,2,2-trifluoro-1-phenyl-ethyl]-6,8-dihydro-5H-imidazo[1,5-a]pyrazine-1-carboxamide]",100 to 500 nM
8,"O=C(NCc1ccccc1)c1c2n(c(=O)n1-c1ccc(N3CCC3=O)cc1)CCN(C(=O)c1ccc(Br)c(Cl)c1)C2 [Example 419, N-benzyl-7-(4-bromo-3-chloro-benzoyl)-3-oxo-2-[4-(2-oxoazetidin-1-yl)phenyl]-6,8-dihydro-5H-imidazo[1,5-a]pyrazine-1-carboxamide]",500 to 5000 nM
9,"COc1ccc(CNC(=O)c2c3n(c(=O)n2-c2ccc(OC4CC4)cc2)CCN(C(=O)c2ccc(Br)c(Cl)c2)C3)c(F)c1 [Example 460, 7-(4-bromo-3-chloro-benzoyl)-2-[4-(cyclopropoxy)phenyl]-N-[(2-fluoro-4-methoxy-phenyl)methyl]-3-oxo-6,8-dihydro-5H-imidazo[1,5-a]pyrazine-1-carboxamide]",100 to 500 nM
10,"O=C1COc2cc(-n3c(C(=O)NCc4ccccc4)c4n(c3=O)CCN(C(=O)c3ccc(Br)c(Cl)c3)C4)ccc2N1 [Example 404, N-benzyl-7-(4-bromo-3-chloro-benzoyl)-3-oxo-2-(3-oxo-4H-1,4-benzoxazin-7-yl)-6,8-dihydro-5H-imidazo[1,5-a]pyrazine-1-carboxamide]",500 to 5000 nM
11,"COc1ccc(-n2c(C(=O)NC(C)C3CC3)c3n(c2=O)CCN(C(=O)c2ccc(Cl)c(Cl)c2)C3)cc1 (racemic) [Example 94, 7-(3,4-dichlorobenzoyl)-2-(4-methoxyphenyl)-3-oxo-N-[rac-(1S)-1-cyclopropylethyl]-6,8-dihydro-5H-imidazo[1,5-a]pyrazine-1-carboxamide]",> 5000 nM
12,"O=C(NCc1ccccc1)c1c2n(c(=O)n1-c1cccnc1)CCN(C(=O)c1ccc(Cl)c(Cl)c1)C2 [Example 49, N-benzyl-7-(3,4-dichlorobenzoyl)-3-oxo-2-(3-pyridyl)-6,8-dihydro-5H-imidazo[1,5-a]pyrazine-1-carboxamide]",> 5000 nM
13,"COc1ccc(-n2c(C(=O)NCc3cccc(C#N)c3)c3n(c2=O)CCN(C(=O)c2ccc(Cl)c(Cl)c2)C3)cc1 [Example 63, N-[(3-cyanophenyl)methyl]-7-(3,4-dichlorobenzoyl)-2-(4-methoxyphenyl)-3-oxo-6,8-dihydro-5H-imidazo[1,5-a]pyrazine-1-carboxamide]",500 to 5000 nM
14,"O=C(NCc1ccc(OC2COC2)cc1F)c1c2n(c(=O)n1-c1ccc(OC3CC3)cc1)CCN(C(=O)c1ccc(Br)c(Cl)c1)C2 [Example 363, 7-(4-bromo-3-chloro-benzoyl)-2-[4-(cyclopropoxy)phenyl]-N-[[2-fluoro-4-(oxetan-3-yloxy)phenyl]methyl]-3-oxo-6,8-dihydro-5H-imidazo[1,5-a]pyrazine-1-carboxamide]",100 to 500 nM
15,"COc1ccc(CNC(=O)c2c3n(c(=O)n2-c2ccc(C#N)cc2)CCN(C(=O)c2ccc(Br)c(Cl)c2)C3)c(C)c1 [Example 163, 7-(4-bromo-3-chloro-benzoyl)-2-(4-cyanophenyl)-N-[(4-methoxy-2-methyl-phenyl)methyl]-3-oxo-6,8-dihydro-5H-imidazo[1,5-a]pyrazine-1-carboxamide]",500 to 5000 nM

# System: HBV
# Experiment: HBV-DNA Antiviral Assay Using HepG2.2.15 Cells (extracellular HBV DNA by qPCR)
# Assay type: cell-based
# Conditions: Hepatitis B virus, 168 h; HBV DNA inhibition, HepG2.2.15 cells, extracellular HBV DNA by qPCR on day 7; read-out: EC50
# Description: The following assay procedure describes the HBV antiviral assay. This assay uses HepG2.2.15 cells, which have been transfected with HBV genome, and extracellular HBV DNA quantification as endpoint. Cell viability is assessed in parallel by measuring the intracellular ATP content using the CellTiter-Glo© reagent from Promega.
# On day 0, HepG2.2.15 cells were seeded in 96-well plates at a density of 6.0×10^4 cells/well (0.1 mL/well). The cells were incubated at 37° C. and 5% CO2.
# On day 1, the test articles were diluted and added to cell culture wells (8 concentrations, 4-fold dilution, in duplicate). GLS4, Tenofovir and Sorafenib were used as reference compounds. 100 μL of culture medium containing the compounds was added to the plate, and the final total volume per well was 200 μL. The final concentration of DMSO in the culture medium was 0.5%. The plate map of compound treatment is shown below. The cells were cultured at 37° C. and 5% CO2 for 3 days.
# On day 4, the plates were refreshed with culture media with compounds.
# On day 7, cell viability was assessed using the CellTiter-Glo, and the cell culture supernatants were collected for determination of HBV DNA by qPCR.
# Extracellular DNA was isolated with QIAamp 96 DNA Blood Kit per the manufacturer's manual. HBV DNA was then quantified by qPCR with HBV specific primers and probes as specified in Table 1 using the FastStart Universal MasterMix from Roche on an ABI-7900HT. The PCR cycle program consisted of 95° C. for 10 min, followed by 40 cycles at 95° C. for 15 sec and 60° C. for 1 min.
# A DNA standard was prepared by dilution of the pAAV2 HBV1.3 plasmid with concentrations ranging from 10 to 1×10^7 copies/μL and used to generate a standard curve by plotting Ct value vs. the concentration of the HBV plasmid DNA standard. The quantity of HBV DNA in each sample was determined by interpolating from the standard curve.
# Cell viability was calculated as follows: % Cell viability=(luminescence value of test sample−average luminescence value of blank)/(average luminescence value of 0.5% DMSO control−average luminescence of blank)×100%. HBV DNA inhibition was calculated as follows: 100-(HBV DNA copy number of test sample−HBV DNA copy number of ETV)/HBV DNA copy number of 0.5% DMSO control−HBV DNA copy number of ETV)×100%. The CC50, EC50 and EC90 values were determined by dose-response curves fitted by GraphPad Prism using “log (agonist) vs. response—Variable slope”.
row,Structure (SMILES),EC50
1,"Cc1cccnc1-c1ccccc1CNC(=O)c1c2n(c(=O)n1-c1ccc(OC3CC3)cc1)CCN(C(=O)c1ccc(Br)c(Cl)c1)C2 [Example 464, 7-(4-bromo-3-chloro-benzoyl)-2-[4-(cyclopropoxy)phenyl]-N-[[2-(3-methyl-2-pyridyl)phenyl]methyl]-3-oxo-6,8-dihydro-5H-imidazo[1,5-a]pyrazine-1-carboxamide]",500 to 5000 nM
2,"O=C(NCc1ccccc1-c1nccnn1)c1c2n(c(=O)n1-c1ccc(OC3CC3)cc1)CCN(C(=O)c1ccc(Br)c(Cl)c1)C2 [Example 463, 7-(4-bromo-3-chloro-benzoyl)-2-[4-(cyclopropoxy)phenyl]-3-oxo-N-[[2-(1,2,4-triazin-3-yl)phenyl]methyl]-6,8-dihydro-5H-imidazo[1,5-a]pyrazine-1-carboxamide]",100 to 500 nM
3,"C[C@@H]1Cn2c(c(C(=O)N[C@H](C)c3ccccc3)n(-c3ccc(-n4cccn4)cc3)c2=O)CN1C(=O)c1ccc(Br)c(Cl)c1 (mixture of isomers) [Example 466, (6RS)-7-(4-bromo-3-chloro-benzoyl)-6-methyl-3-oxo-N-[(1R)-1-phenylethyl]-2-(4-pyrazol-1-ylphenyl)-6,8-dihydro-5H-imidazo[1,5-a]pyrazine-1-carboxamide]",500 to 5000 nM
4,"O=C1NCCCn2c1c1n(c2=O)CCN(C(=O)Nc2ccc(F)c(Cl)c2)C1 [Example 1, N-(3-chloro-4-fluorophenyl)-6,12-dioxo-1,3,4,8,9,10,11,12-octahydro-2H,6H-pyrazino[1′,2′:3,4]imidazo[1,5-a][1,4]diazepine-2-carboxamide]",> 5000 nM
5,"O=C1NCCCn2c1c1n(c2=O)CCN(C(=O)c2ccc(Br)cc2)C1 [Example 5, 4-(4-bromobenzoyl)-4,7,9,13-tetraazatricyclo[7.5.0.0^[2,7]]tetradec-1-ene-8,14-dione]",> 5000 nM
6,"C[C@@H](NC(=O)c1c2n(c(=O)n1-c1ccc(-n3cccn3)cc1)C[C@H](C)N(C(=O)c1ccc(Br)c(Cl)c1)C2)c1ccccc1 (mixture of isomers) [Example 467, (6SR)-7-(4-bromo-3-chloro-benzoyl)-6-methyl-3-oxo-N-[(1R)-1-phenylethyl]-2-(4-pyrazol-1-ylphenyl)-6,8-dihydro-5H-imidazo[1,5-a]pyrazine-1-carboxamide]",100 to 500 nM
